In data set [1] the test system is HIV. The settings on record: cited from earlier work.
For data set [2] the following is noted: cited from earlier work.
For data set [3] the following is noted: cited from earlier work. This is another data set of the same source.
Data set [4] can be described thus: Critical water activity for relative form stability: ethanol slurries at 25° C., XRPD. The data set is classed as physicochemical. The settings on record: for Final Form by XRPD: ethanol slurry 25° C.; for Water activity levels in ethanol at which the form is the stable form: EtOH slurries, 25° C. The protocol: For robust isolation of desired squalamine phosphate crystal form, critical water activity in EtOH has been investigated in terms of the relative stability of ENT-01 Forms 1 and 2. The procedure is detailed below.
Nine samples of each Form 1 and Form 2 separately (˜25 mg each) were prepared in scintillation vials. To each vial ½ mL of ethanol with water activity levels from 0.1 to 0.9 were added and the vials were let to condition in a shaker at 25° C. for 2-3 days. Similarly, six mixed samples of Form 1 and 2 were prepared and slurry conditioned at water activity levels of 0.1 to 0.6 in ethanol at 25° C. The wet cakes of each slurry were analyzed by XRPD.
The slurries post conditioning were analyzed by XRPD. […] The XRPD pattern matches that of Form 2.

The nature of data set [5]: Form stability: dry ethanol slurry at 30° C., XRPD. It is filed as physicochemical. The settings on record: Slurry in dry ethanol at 30° C., overnight. The protocol: A small portion of Form 1 (˜50 mg) and a small portion of Form 2 (˜50 mg) were prepared in scintillation vials and equal volumes of sieve dried ethanol was added, the slurries were conditioned overnight in a shaker at 30° C. The wet slurries were analyzed by XRPD (FIG. 14).

Data set [6] in a line: Form stability: low (27% RH) and high (70% RH) humidity conditioning, XRPD. The data set is classed as physicochemical. The note with it: 21° C. The protocol:
One sample each of Form 1 and Form 2 on XRPD plates (˜10 mg each) were exposed to 21° C. 27% RH and 21° C. 70% RH for one and two days, respectively. The four samples were analyzed by XRPD (FIG. 12 and FIG. 13).

Data set [7] can be described thus: Form stability: water-acetone and water-ethanol wash, then 40° C. drying, XRPD. It is filed as physicochemical. The settings on record: overnight. Here is the method: Two small portions of Form 2 (˜100 mg each) were prepared in sample vials. The first one was slurried in water briefly followed by filtration and acetone wash. The second one was slurried in water briefly, filtered and washed with ethanol. Both samples were then oven dried at 40° C. overnight and analyzed by XRPD (FIG. 11).

The mark [8] stands for this setting: dose levels 6 to 700 mg/m(2)/day.
The mark [9] stands for this setting: patients, 500 mg/m(2)/day, 5-day continuous i.v. infusion.

Entries after “also recorded” stand apart in the source; their conditions may differ. Like-named read-outs stand apart in the source and are kept apart here.

As for `Nc1nc(=O)n([C@@H]2CS[C@H](CO)O2)cc1F` [COVIRACIL, emtricitabine], in data set [1] (in vitro), the “greater activity in vitro than lamivudine (3TC)” value is 3-to 10 fold.
Consider `CC[C@H]1C(=O)Nc2ccc(F)cc2N1C(=O)OC(C)C` [GW420867X], for which the “greater activity than HBY097” value in data set [1] was 25 fold.
`C[C@H](Sc1nc(N)cc(Cl)n1)c1cc2ccoc2cn1` [PNU-142721]: the “greater activity than its predecessor delavirdine” value in data set [1] is reported as 20- to 50 fold.
Consider `CC(C)[C@@H](CC[C@@H](C)[C@H]1CC[C@H]2[C@@H]3[C@H](O)C[C@H]4C[C@@H](NCCCNCCCCN)CC[C@]4(C)[C@H]3CC[C@]12C)OS(=O)(=O)O` [squalamine, 3 beta-N-1-(N-[3-(4-aminobutyl)]-1,3-diaminopropane)-7 alpha,24 zeta-dihydroxy-5 alpha-cholestane 24-sulfate], for which, in data set [2] (500 mg/m(2)/day), the dose-limiting toxicity entry is “one of seven patients experienced dose-limiting grade 4 hyperbilirubinemia and grade 3 neurosensory changes”; the tolerability entry is “well tolerated”. Also, in data set [2] (700 mg/m(2)/day), the dose-limiting toxicity result is on record as “two of three patients developed grade 4 hyperbilirubinemia”. Further, in data set [2] (setting [8]), the pharmacokinetics versus dose entry is “dose-proportional” and the principal dose-limiting toxicity result is “Hepatotoxicity”. Further, in data set [2] (setting [9]), the “clearance, mean (percentage coefficient of variation)” value is 2.67 liters/h/m(2); the “half-life, mean (percentage coefficient of variation)” value is listed as 9.46 h; the “steady-state concentrations, mean (percentage coefficient of variation)” value is listed as 20.08 micro g/ml; the “volume of distribution, mean (percentage coefficient of variation)” value is reported as 36.84 liters/m(2). The “dose-limiting toxicity (grade 3/4 arthralgia, myalgia, neutropenia)” value in data set [3] (400 mg/m(2)/day with paclitaxel and carboplatin) was “two of three patients”. Moreover, the “dose selected as the Phase II dose on the basis of safety and toxicity” value in data set [3] (combination regimen with paclitaxel and carboplatin) is given as 300 mg/m(2)/day. The “tolerability of the combination” value in data set [3] (continuously daily for 5 days, with paclitaxel and carboplatin on day 1) is given as “well tolerated”.
For squalamine phosphate [Form 1 + 2], the “Final Form by XRPD” value in data set [4] (mixed forms, Aw 0.099, water volume fraction 0.013, seven days) is on record as “Form 1”; in data set [4] (mixed forms, Aw 0.205, water volume fraction 0.030, seven days), “Form 1”; in data set [4] (mixed forms, Aw 0.298, water volume fraction 0.048, seven days), “Form 1”; in data set [4] (mixed forms, Aw 0.398, water volume fraction 0.073, seven days), “Form 1”; in data set [4] (mixed forms, Aw 0.502, water volume fraction 0.104, seven days) it was “Form 1”; in data set [4] (mixed forms, Aw 0.605 (0.6), water volume fraction 0.145, seven days), “Form 2”. Also, in data set [4] (mixed forms, Aw 0.605 (0.6), water volume fraction 0.145, seven days, listed as Form 1 and 2), the “Final Form by XRPD” value was “converted to Form 2”. The “Form after slurry conditioning, by XRPD” value in data set [4] (mixed slurries in Ethanol at water activity levels of 0.1 to 0.5 Aw at 25° C., seven days) is “converted to Form 1”.
Take squalamine phosphate [Form 1 + Form 2]: the “Final Form by XRPD” value in data set [4] (Aw 0.000, water volume fraction 0.000, three days) is reported as “Form 1”; in data set [4] (Aw 0.099, water volume fraction 0.013, three days), “Form 1”; in data set [4] (Aw 0.205, water volume fraction 0.030, three days), “Form 1”; in data set [4] (Aw 0.298, water volume fraction 0.048, three days), “Form 1”; in data set [4] (Aw 0.398, water volume fraction 0.073, three days), “Form 1 + Form 2”; in data set [4] (Aw 0.502, water volume fraction 0.104, three days), “Form 1 + Form 2”. In addition, the “Final Form by XRPD” value is given as “Form 2” in data set [4] (Aw 0.700, water volume fraction 0.198, three days); “Form 2” in data set [4] (Aw 0.802, water volume fraction 0.296, three days); “Form 2” in data set [4] (Aw 0.900, water volume fraction 0.550, three days).
Consider squalamine phosphate [Form 1], for which the “Water activity levels in ethanol at which the form is the stable form” value in data set [4] is recorded as ≤ 0.5 Aw. Further, the “Form after slurry conditioning, by XRPD” value is “stayed the same Form” in data set [4] (slurries in Ethanol at water activity levels of 0.1 to 0.6 at 25° C., three days) and “converted to Form 2” in data set [4] (slurries in Ethanol at water activity levels of 0.7 to 0.9 at 25° C., three days). Further, the “Final Form by XRPD” value is listed as “Form 1” in data set [5]; “remained the same form; also recorded: Form 1” in data set [6] (27% RH, overnight (one day)); “remained the same as their respective starting forms; also recorded: Form 1” in data set [6] (70% RH, two nights).
For squalamine phosphate [Form 2], the “Water activity levels in ethanol at which the form is the stable form” value in data set [4] was ≥ 0.6 Aw. Further, the “Form after slurry conditioning, by XRPD” value in data set [4] (slurries in Ethanol at water activity levels of 0.1 to 0.3 at 25° C., three days) was “converted to Form 1”; in data set [4] (slurries in Ethanol at water activity levels of 0.4 to 0.9 at 25° C., three days) it was “stayed the same Form 2”. The “Final Form by XRPD” value in data set [7] (Water-acetone wash + 40° C. dry) is “generates Form 1; also recorded: converted to Form 1”; in data set [7] (Water-ethanol wash + 40° C. dry), “generates Form 1; also recorded: converted to Form 1”; in data set [5], “converted to Form 1”; in data set [6] (27% RH, overnight (one day)), “Form 1 was also obtained; also recorded: converted to Form 1”; in data set [6] (70% RH, two nights) it was “remained the same as their respective starting forms; also recorded: Form 2”.
